# Results published in paper PMC7274485, “A symbiotic bacterium of shipworms produces a compound with broad spectrum anti-apicomplexan activity” (PLoS Pathogens, 2020).
# Where two headings read alike, the source gives them in different places.
# Columns and labels:
# [1] = system: T. gondii; experiment: Intracellular T. gondii growth inhibition, luciferase expression in HFF cells; assay type: cell-based; conditions: Toxoplasma gondii; luciferase expressing RH or ME49 strain in HFF cells; trtE added 24 hours post-infection, read 24 hours later; purification method 1 or 2; read-out: EC50 against intracellular T. gondii
# Method: To obtain sufficient trtE for in vitro and in vivo experiments, bacterial growth conditions were optimized, and a modified purification method was developed and validated by ESI-HRMS, LC/MS/MS and NMR (purification method 2; see methods and S8–S9 Figs). To determine the effective concentration at which trtE inhibited the growth of 50% of T. gondii parasites (EC50), HFF cells were seeded into 96 well plates and infected with luciferase expressing T. gondii tachyzoites. 24 hours post-infection two-fold serial dilutions of trtE, purified by method 1 or method 2, or DMSO vehicle control were added to the infected cells. 24 hours later, the infected cells were lysed and parasite growth quantified by luciferase expression. The EC50 of trtE against intracellular T. gondii was determined to be 3 nM regardless of purification method.
# T. gondii parasite lines were maintained by passage in HFFs as previously described. […] Growth was monitored by luciferase expression using Bright-glo Luciferase assay system (Promega Corp., Madison, WI). […] Infected cells were then incubated for 72 hours before growth was quantified by luciferase expression. […]
# [2] = system: B. bigemina; experiment: B. bigemina-infected erythrocyte proliferation, SYBR green incorporation; assay type: cell-based; conditions: Babesia bigemina, infected erythrocytes, 72 hours, read-out: EC50 against B. bigemina
# Method: B. bovis and B. bigemina inhibitor response assays were adapted from components of [79–81]. B. bovis and B. bigemina parasites were maintained in bovine erythrocytes under microaerophilic stationary phase conditions in vitro as described elsewhere. Prior to use in growth studies parasites were grown in erythrocytes from which leukocytes were depleted. Cultures were set up at 0.20% parasitized erythrocytes, in quadruplicate, in complete medium supplemented with trtE. Final concentration of DMSO in all cultures was 1%, and was consistent throughout. Following 72h growth under 90% nitrogen, 5% oxygen, 5% carbon dioxide cells were harvested by thorough resuspension, and transferred to a black, opaque 96-well plate. Cells were freeze-thawed at -80°C overnight, then mixed with an equal volume of SYBR Green lysis buffer. Lysis buffer was composed of 20 mM Tris, pH 7.5, 5 mM EDTA, 0.008% (w/v) saponin, 0.08% (v/v) NP40, and contained 0.2 μl 10,000x SYBR Green I dye ml^-1 (S7563; Invitrogen; Carlsbad, CA). Plates were incubated for one hour at room temperature in the dark prior to reading in a microplate reader, at 485 nm excitation and 528 nm emission wavelengths.
# [3] = system: Cryptosporidium parvum; experiment: Nanoluciferase-expressing C. parvum inhibitor response assay in HCT-8 cells; assay type: cell-based; conditions: HCT-8 cells infected 24 hours, read 48 hours post-treatment, read-out: EC50 against C. parvum
# Method: We had postulated that secondary metabolites generated by symbiotic bacteria of invertebrates might include compounds that target gregarines, an ancient group of apicomplexans found in most, and perhaps all, invertebrates. The only gregarines known to infect mammals are Cryptosporidium species, gastrointestinal parasites that cause diarrheal disease in humans and other mammals. HCT8 cells were infected with luciferase-expressing Cryptosporidium parvum parasites for 24 hours, then two-fold dilutions of trtE added to the infected cells. 48 hours after the addition of trtE, parasite growth was quantified by luciferase expression. […] To examine the morphology of trtE treated C. parvum parasites, HCT8 cells were infected with C. parvum oocysts for 8 hours. Extracellular parasites were washed off and medium containing 60 nM trtE added to the infected cells. After 12 hours of treatment, infected cells were fixed and processed for IFAs.
# C. parvum oocysts expressing nanoluciferase (nLuc) were obtained from the Cryptosporidium Production Laboratory at the University of Arizona and inhibitor response assays were conducted as previously described.
# [4] = system: Theileria equi; experiment: Theileria equi 72 hr in vitro parasite growth inhibition assay; assay type: cell-based
# Method: The effect of trtE on proliferation of T. equi was evaluated in a 72 hr in vitro parasite growth inhibition assay performed as previously described using the USDA Florida strain of T. equi.
# A. Bovine turbinate cells infected with luciferase expressing Sarcocystis neurona merozoites were treated with trtE for 24 hours and parasite growth evaluated by luciferase expression. […] B. Theileria equi-infected erythrocytes were incubated with trtE or DMSO vehicle control and proliferation was measured after 72 hours by SYBR green incorporation. Percent proliferation was calculated relative to DMSO treated controls. […] (DOCX) Click here for additional data file.
# [5] = system: Human Foreskin fibroblasts; experiment: Cytotoxicity for host cells, cellular ATP (CellTiter-Glo): HFF
# Method: (§1) Toxicity was evaluated by measuring cellular ATP concentrations.
# (§2) HCT8, HFF and BT cells were seeded in 96-well plates to achieve 20–30% confluence after 24 hours of growth.
# [6] = system: Bovine turbinate cells; experiment: Cytotoxicity for host cells, cellular ATP (CellTiter-Glo): BT cells
# Method: as §1, §2
# [7] = 20–30% confluency, 24 hours, cellular ATP
structure (smiles),measurement,setting,value
"CC1CCC=CC=CCCC(O)CC(=O)CC2CCC(C)C3(O2)O[B-]24OC(C(=O)O1)C1(OC(CCC1C)CC(=O)CC(O)CCC=CC=CCCC(C)OC(=O)C3O2)O4 (stereo not drawn) [trtE, tartrolon E]",EC50,[1],3 nM
same,EC50,[2],9.3 nM
same,EC50,[3],3.85 nM
same,EC50,"[4]; Erythrocyte, infected erythrocytes, 72 hours, read-out: EC50 against T. equi",0.391 nM
same,EC50,"[4]; Table 1, rounded, read-out: EC50 against T. equi (Table 1)",0.4 nM
same,TC50 (median toxic concentration) for HFF,[5]; [7],7900 nM
same,"Selectivity Index, T. gondii vs Human Foreskin fibroblasts",[5]; TC50/EC50,2633
same,TC50 (median toxic concentration) for BT cells,[6]; [7],16800 nM
same,"Selectivity Index, S. neurona vs Bovine turbinate cells",[6]; TC50/EC50,1302
